Source: US20230339866A1, “Quinazoline compounds and the use thereof in the treatment of cancer” (TROBIO THERAPEUTICS PTY LTD, priority 2020, published 2023)

Experiments:
A549 (NSCLC) = experiment: Anti-proliferative activity (Cell-Titre luminescence) against A549 non-small cell lung cancer cells; assay type: cell-based; conditions: Homo sapiens, 72 h exposure, Cell-Titre luminescent reagent
Method: (§1) The ability of compounds of the invention to inhibit the proliferation of cancer cells representative of non-small cell lung cancer and ovarian cancer (Table 2), pancreatic cancer, colorectal cancer and prostate cancer (Table 3) was assessed. Briefly, a predetermined number of cells as calculated from cell growth assays for each of the cell lines employed were seeded into their respective culture medium (using ATCC culture parameters—http://www.atcc.org) and cultured for 24 h at 37° C. and 5% CO2 in 96-well culture plates. Once attached, each cell line was then exposed to various concentrations of each respective analogue (30, 10, 3, 1, 0.3 and 0.1 μM), cultured for a further 72 h and exposed to Cell-Titre luminescent reagent (100 μL/well) for a further 30 min. Luminescence was captured using an EnVision multilabel reader and the data for each analogue concentration compared against no treatment control. Cell viability was normalised to control (vehicle alone) and dose response curves, and half maximal effective concentration (EC50) values were determined using Graph Pad Prism 6 (nonlinear regression sigmoidal dose-response variable slope).

A2780 (ovarian) = experiment: Anti-proliferative activity (Cell-Titre luminescence) against A2780 ovarian cancer cells; assay type: cell-based; conditions: Homo sapiens, 72 h exposure, Cell-Titre luminescent reagent
Method: as §1

Row | SMILES | IC50 (A549 (NSCLC); A549, 72 h) [µM] | IC50 (A2780 (ovarian); A2780, 72 h) [µM] | IC50 (A549 (NSCLC); A549) [µM] | IC50 (A2780 (ovarian); A2780) [µM]
1 | CN1CCN(CCNc2nc(NCCc3ccc(N)cc3)nc3ccccc23)CC1 [Compound 133, N^2-(4-aminophenethyl)-N^4-(2-(4-methylpiperazin-1-yl)ethyl)quinazoline-2,4-diamine] | 14.3 | 7.17 | – | –
2 | OCCNc1nc(NCc2cccc(C(F)(F)F)c2)nc2ccccc12 [Compound 2, 2-((2-((3-(trifluoromethyl)benzyl)amino)quinazolin-4-yl)amino)ethan-1-ol] | – | – | 11.1 | 10.7
3 | COc1ccc(CNc2nc(NCCN3CCN(C)CC3)c3ccccc3n2)cc1 [Compound 49, N^2-(4-methoxybenzyl)-N^4-(2-(4-methylpiperazin-1-yl)ethyl)quinazoline-2,4-diamine] | 8.77 | 6.87 | – | –
4 | COc1ccc(CCNc2nc(NCCO)c3ccccc3n2)cc1 [Compound 39, 2-((2-((4-methoxyphenethyl)amino)quinazolin-4-yl)amino)ethan-1-ol] | > 30 | 11.9 | – | –
5 | CN1CCN(CCNc2nc(NCc3ccccc3)nc3ccccc23)CC1 [Compound 45, N^2-benzyl-N^4-(2-(4-methylpiperazin-1-yl)ethyl)quinazoline-2,4-diamine] | 18.4 | 8.55 | – | –
6 | CN1CCN(CCNc2nc(OCCc3cccc(C(F)(F)F)c3)nc3ccccc23)CC1 [Compound 150, N-(2-(4-methylpiperazin-1-yl)ethyl)-2-(3-(trifluoromethyl)phenethoxy)quinazolin-4-amine] | 16.5 | 12.2 | – | –
7 | CN1CCN(CCNc2nc(NCCc3ccc(Cl)cc3)nc3ccccc23)CC1 [Compound 130, N^2-(4-chlorophenethyl)-N^4-(2-(4-methylpiperazin-1-yl)ethyl)quinazoline-2,4-diamine] | 10.9 | 2.88 | – | –
8 | CN1CCN(CCNc2nc(Nc3ccc(C(F)(F)F)cc3)nc3ccccc23)CC1 [Compound 42, N^4-(2-(4-methylpiperazin-1-yl)ethyl)-N^2-(4-(trifluoromethyl)phenyl)quinazoline-2,4-diamine] | 4.94 | 1.69 | – | –
9 | c1ccc2c(NCCc3c[nH]cn3)nc(-c3cc[nH]c3)nc2c1 [Compound 107, N-(2-(1H-imidazol-4-yl)ethyl)-2-(1H-pyrrol-3-yl)quinazolin-4-amine] | 9.4 | 1.95 | – | –
10 | CC(C)C(CNc1nc(-c2cccs2)nc2ccccc12)N1CCN(C)CC1 (centres unmarked) [Compound 3, N-(3-methyl-2-(4-methylpiperazin-1-yl)butyl)-2-(thiophen-2-yl)quinazolin-4-amine] | 5.92 | 8.89 | – | –
11 | CN(C)CCCNc1nc(-c2ccsc2)nc2ccccc12 [Compound 100, N^1,N^1-dimethyl-N^3-(2-(thiophen-3-yl)quinazolin-4-yl)propane-1,3-diamine] | 19.4 | 11.8 | – | –
12 | COc1cc(CCNc2nc(NCCN3CCN(C)CC3)c3ccccc3n2)cc(OC)c1OC [Compound 142, N^4-(2-(4-methylpiperazin-1-yl)ethyl)-N^2-(3,4,5-trimethoxyphenethyl)quinazoline-2,4-diamine] | > 30 | > 30 | – | –
13 | OCCNc1nc(NCCc2ccc(F)cc2)nc2ccccc12 [Compound 91, 2-((2-((4-fluorophenethyl)amino)quinazolin-4-yl)amino)ethan-1-ol] | 6.76 | 5.42 | – | –
14 | CN(C)CCCNc1nc(Nc2cccc(F)c2)nc2ccccc12 [Compound 72, N^4-(3-(dimethylamino)propyl)-N^2-(3-fluorophenyl)quinazoline-2,4-diamine] | 11.2 | 3.43 | – | –
15 | CN1CCN(CCNc2nc(NCCc3ccc(O)cc3)nc3ccccc23)CC1 [Compound 132, N^2-(4-hydroxyphenethyl)-N^4-(2-(4-methylpiperazin-1-yl)ethyl)quinazoline-2,4-diamine] | 8.03 | 4.71 | – | –
16 | c1ccc2c(NCCc3c[nH]cn3)nc(-n3cccc3)nc2c1 [Compound 108, N-(2-(1H-imidazol-4-yl)ethyl)-2-(1H-pyrrol-1-yl)quinazolin-4-amine] | 9.53 | 5.79 | – | –
17 | CN1CCN(CCNc2nc(NCCc3ccc(C(F)(F)F)cc3)nc3ccccc23)CC1 [Compound 52, N^4-(2-(4-methylpiperazin-1-yl)ethyl)-N^2-(4-(trifluoromethyl)phenethyl)quinazoline-2,4-diamine] | 5.6 | 1.19 | – | –
18 | CN1CCN(CCNc2nc(NCCc3ccncc3)nc3ccccc23)CC1 [Compound 146, N^4-(2-(4-methylpiperazin-1-yl)ethyl)-N^2-(2-(pyridin-4-yl)ethyl)quinazoline-2,4-diamine] | 15.7 | 14.1 | – | –
19 | CN1CCN(CCNc2nc(-n3cccc3)nc3ccccc23)CC1 [Compound 17, N-(2-(4-methylpiperazin-1-yl)ethyl)-2-(1H-pyrrol-1-yl)quinazolin-4-amine] | > 30 | 22.7 | – | –

Row | SMILES | IC50 (A549 (NSCLC); A549, 72 h) [µM] | IC50 (A2780 (ovarian); A2780, 72 h) [µM] | IC50 (A549 (NSCLC); A549) [µM] | IC50 (A2780 (ovarian); A2780) [µM]
20 | OCCCNc1nc(-n2cccc2)nc2ccccc12 [Compound 111, 3-((2-(1H-pyrrol-1-yl)quinazolin-4-yl)amino)propan-1-ol] | > 30 | > 30 | – | –
21 | OCCNc1nc(Nc2ccc(C(F)(F)F)cc2)nc2ccccc12 [Compound 28, 2-((2-((4-(trifluoromethyl)phenyl)amino)quinazolin-4-yl)amino)ethan-1-ol] | > 30 | > 30 | – | –
22 | CN1CCN(CCNc2nc(-c3ccoc3)nc3ccccc23)CC1 [Compound 15, 2-(furan-3-yl)-N-(2-(4-methylpiperazin-1-yl)ethyl)quinazolin-4-amine] | > 30 | > 30 | – | –
23 | OCCNc1nc(-c2ccsc2)nc2ccccc12 [Compound 19, 2-((2-(thiophen-3-yl)quinazolin-4-yl)amino)ethan-1-ol] | > 30 | > 30 | – | –
24 | CC(C)C(CNc1nc(-c2ccco2)nc2ccccc12)N1CCN(C)CC1 (centres unmarked) [Compound 6, 2-(furan-2-yl)-N-(3-methyl-2-(4-methylpiperazin-1-yl)butyl)quinazolin-4-amine] | > 30 | > 30 | – | –
25 | CN1CCN(CCNc2nc(-c3ccco3)nc3ccccc23)CC1 [Compound 14, 2-(furan-2-yl)-N-(2-(4-methylpiperazin-1-yl)ethyl)quinazolin-4-amine] | > 30 | > 30 | – | –
26 | CN1CCN(CCNc2nc(NCCc3ccc(N(C)C)cc3)nc3ccccc23)CC1 [Compound 134, N^2-(4-(dimethylamino)phenethyl)-N^4-(2-(4-methylpiperazin-1-yl)ethyl)quinazoline-2,4-diamine] | 8.86 | 2.68 | – | –
27 | OCCNc1nc(-c2ccc[nH]2)nc2ccccc12 [Compound 20, 2-((2-(1H-pyrrol-2-yl)quinazolin-4-yl)amino)ethan-1-ol] | > 30 | > 30 | – | –
28 | FC(F)(F)c1cccc(Nc2nc(NCCc3c[nH]cn3)c3ccccc3n2)c1 [Compound 79, N^4-(2-(1H-imidazol-4-yl)ethyl)-N^2-(3-(trifluoromethyl)phenyl)quinazoline-2,4-diamine] | > 30 | 18.9 | – | –
29 | OCCCNc1nc(-c2cc[nH]c2)nc2ccccc12 [Compound 110, 3-((2-(1H-pyrrol-3-yl)quinazolin-4-yl)amino)propan-1-ol] | 9.19 | 4.87 | – | –
30 | CN1CCN(CCNc2nc(NCCc3cccc(F)c3)nc3ccccc23)CC1 [Compound 58, N^2-(3-fluorophenethyl)-N^4-(2-(4-methylpiperazin-1-yl)ethyl)quinazoline-2,4-diamine] | 5.85 | 6.22 | – | –
31 | CCc1ccc(Nc2nc(NCCN3CCN(C)CC3)c3ccccc3n2)cc1 [Compound 55, N^2-(4-ethylphenyl)-N^4-(2-(4-methylpiperazin-1-yl)ethyl)quinazoline-2,4-diamine] | 4.45 | 7.16 | – | –
32 | COc1ccc(CCNc2nc(NCCN3CCN(C)CC3)c3ccccc3n2)cc1OC [Compound 137, N^2-(3,4-dimethoxyphenethyl)-N^4-(2-(4-methylpiperazin-1-yl)ethyl)quinazoline-2,4-diamine] | 13.4 | 8.71 | – | –
33 | OCCCNc1nc(NCCc2cccc(F)c2)nc2ccccc12 [Compound 94, 3-((2-((3-fluorophenethyl)amino)quinazolin-4-yl)amino)propan-1-ol] | 5.57 | 4.59 | – | –
34 | CN1CCN(CCNc2nc(NCCc3ccc(F)c(F)c3)nc3ccccc23)CC1 [Compound 136, N^2-(3,4-difluorophenethyl)-N^4-(2-(4-methylpiperazin-1-yl)ethyl)quinazoline-2,4-diamine] | 4.77 | 1.03 | – | –
35 | COCCCNc1nc(NCCc2cccc(C(F)(F)F)c2)nc2ccccc12 [Compound 117, N^4-(3-methoxypropyl)-N^2-(3-(trifluoromethyl)phenethyl)quinazoline-2,4-diamine] | 3.05 | 1.62 | – | –
36 | COc1cc(CCNc2nc(NCCN3CCN(C)CC3)c3ccccc3n2)cc(OC)c1 [Compound 140, N^2-(3,5-dimethoxyphenethyl)-N^4-(2-(4-methylpiperazin-1-yl)ethyl)quinazoline-2,4-diamine] | 13.2 | 7.26 | – | –
37 | OCCNc1nc(NCCc2ccc(C(F)(F)F)cc2)nc2ccccc12 [Compound 37, 2-((2-((4-(trifluoromethyl)phenethyl)amino)quinazolin-4-yl)amino)ethan-1-ol] | 3.82 | 3.82 | – | –
